Test results published in publication PMC12272249, “Engineering high-efficiency matriptase substrates using E. coli display for applications in prodrug activation” (Cell Reports Methods, 2025).
Several values for one entry are separate records, joined by “and”; a condition that tells them apart may be missing. Equal entries are not always repeated. Where two headings read alike, the source gives them in different places.

Tests used:
matriptase [1] = target: T1, matriptase (Homo sapiens, UniProt Q9Y5Y6); assay: E. coli display cleavage reporter assay, flow cytometry, matriptase treatment; assay type: biochemical; conditions: for relative cleavage efficiency group (high, medium, low): E. coli-displayed substrate, 1, 10, 25 and 50 nM matriptase over 90 min; for time to complete cleavage / cleavage reporter signal of matriptase-treated compared to untreated cells: E. coli-displayed substrate; for time to complete cleavage: flow cytometry; for cleavage reporter signal of matriptase-treated compared to untreated cells: 100 nM matriptase, 30 min, 37°C, n = 3
T1 construct: purchased R&D Systems (Bio-Techne) 3946-SEB
T1 sequence (Q9Y5Y6 615-855 limits assumed): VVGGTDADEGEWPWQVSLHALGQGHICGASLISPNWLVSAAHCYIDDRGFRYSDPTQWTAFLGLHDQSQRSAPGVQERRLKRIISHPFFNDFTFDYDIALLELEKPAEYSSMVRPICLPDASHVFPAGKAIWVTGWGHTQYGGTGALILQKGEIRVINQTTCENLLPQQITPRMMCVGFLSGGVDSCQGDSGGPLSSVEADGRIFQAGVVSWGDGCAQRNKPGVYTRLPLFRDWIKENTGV

matriptase [2] = target: T1, matriptase; assay: FRET-based kinetic analysis of matriptase cleavage; assay type: biochemical; conditions: 10 nM matriptase; for substrate cleavage by matriptase under identical conditions: 30 μM Abz/Dnp peptide, 37°C, 6,000 s, three replicates; for Vmax / Km / kcat/KM / kcat: Abz/Dnp-labelled 6-mer peptide, PBS, 37°C, n = 3; for Vmax / Km / kcat: Michaelis-Menten fit; for Vmax / kcat/KM / kcat: average ± SD; for kcat: serial dilution of substrate, 90 min, Ex 320/Em 420 nm
[3] = target: urokinase-type plasminogen activator (uPA) (Homo sapiens, UniProt P00749); assay: FRET substrate stability against uPA; assay type: in vitro ADME; conditions: 30 μM Abz/Dnp peptide, 10 nM uPA, appropriate buffer, 37°C, 100 min (6,000 s), fluorescence, three replicates
Experimental: (§1) (cysteine protease), urokinase plasminogen[36] (uPA; serine protease), and MMP-2[37] (matrix metalloprotease), respectively.
(§2) Initial velocity (V0) was calculated from early linear slopes. […] Fluorescence was recorded for 6000 s.

matriptase [4] = target: T1, matriptase; assay type: biochemical
legumain = target: T2, legumain (Homo sapiens, UniProt Q99538); assay: FRET substrate stability against legumain; assay type: in vitro ADME; conditions: 30 μM Abz/Dnp peptide, 10 nM legumain, appropriate buffer, 37°C, 100 min (6,000 s), fluorescence, three replicates
T2 construct: purchased R&D Systems (Bio-Techne) 2199-CY
T2 sequence (Q99538 18-433): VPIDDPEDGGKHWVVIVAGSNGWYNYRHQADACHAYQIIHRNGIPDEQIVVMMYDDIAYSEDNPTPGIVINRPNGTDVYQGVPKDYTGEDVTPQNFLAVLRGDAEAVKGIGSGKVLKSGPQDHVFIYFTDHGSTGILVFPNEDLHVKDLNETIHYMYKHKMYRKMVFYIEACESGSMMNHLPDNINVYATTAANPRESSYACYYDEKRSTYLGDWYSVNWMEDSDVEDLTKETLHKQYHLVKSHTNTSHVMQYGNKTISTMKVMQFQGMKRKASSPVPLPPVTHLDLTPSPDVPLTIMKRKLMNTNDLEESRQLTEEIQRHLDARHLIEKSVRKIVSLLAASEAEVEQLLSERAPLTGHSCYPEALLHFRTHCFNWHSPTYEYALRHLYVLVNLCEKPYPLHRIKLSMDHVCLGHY
Experimental: as §1, §2

matriptase [5] = target: T1, matriptase; assay: Cleavage of soluble substrates in affibody-ABD format, SDS-PAGE; assay type: biochemical; conditions: 37°C; for cleavage: affibody-ABD fusion 50 μg/mL in PBS, SDS-PAGE densitometry (ImageJ)
Experimental: Affibody-ABD substrates (50 μg/mL in PBS) were treated with 1, 10, or 50 nM matriptase at 37°C for 10, 30, or 60 min. Reactions were quenched by adding SDS loading buffer (31.2 mM Tris-HCl, pH 6.8, 1% SDS, 12.5% glycerol, 0.01% bromophenol blue, 5 mM TCEP) and heating at 90°C for 10 min. Samples were analyzed by SDS-PAGE as above. High-resolution gel images (600 dpi) were analyzed using ImageJ (v1.54i). Band intensities were quantified to assess the fraction of cleaved vs. intact substrate. Data were processed in Microsoft Excel and visualized with GraphPad Prism 10.

TEV protease = TEV protease (Tobacco etch virus, UniProt P04517); assay: E. coli display cleavage reporter assay, flow cytometry, TEV protease treatment; conditions: E. coli-displayed substrate, 100 nM TEV, 30 min, 30°C, n = 3
Chain of TEV protease (P04517 2038-2279): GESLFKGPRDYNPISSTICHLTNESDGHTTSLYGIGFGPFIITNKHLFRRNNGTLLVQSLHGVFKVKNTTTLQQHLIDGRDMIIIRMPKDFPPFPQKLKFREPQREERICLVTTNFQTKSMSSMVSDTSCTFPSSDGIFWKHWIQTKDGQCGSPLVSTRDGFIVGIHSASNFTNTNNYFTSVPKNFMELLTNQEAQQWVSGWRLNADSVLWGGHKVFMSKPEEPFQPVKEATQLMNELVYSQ

matriptase [6] = target: T1, matriptase; conditions: previously reported value; cited from earlier work
Experimental: The most promising newly discovered substrates (MtpB9, MtpC5, and MtpC9), along with control substrates, were chemically synthesized and linked to 2-aminobenzoyl (Abz) and 2,4-dinitrophenyl (Dnp), a standard fluorophore/quencher combination used in FRET assays (Figure 4A). A serial dilution of the substrates (ranging from 120 to 1.75 μM) was used to monitor matriptase cleavage activity. The reaction was tracked by measuring the Abz fluorescence continuously for 90 min. Kinetic parameters were calculated by fitting the cleavage rates to substrate concentrations using the Michaelis-Menten equati ...

For PFKRQL [MtpC12], which “relative cleavage efficiency group (high, medium, low)” value (“relative cleavage efficiency group” below) (matriptase [1]) is on record?
The value was “low”.

What does the source list for GAKSRR [MtpB9]?
substrate cleavage by matriptase under identical conditions (matriptase [2]): cleavage was observed; Vmax (matriptase [2]): 0.04 ± 0.0007 µM/s; Km (matriptase [2]): 18.7 µM; kcat/KM (matriptase [2]): 2.3E+05 ± 3,948 M^−1 s^−1; kcat (matriptase [2]): 4.4 ± 0.07 s⁻¹; substrate cleavage by uPA [3]: No detectable substrate cleavage; time to complete cleavage (matriptase [4]): ≤ 30 min; substrate cleavage by legumain (legumain): No detectable substrate cleavage; time to complete cleavage (matriptase [1]; 10 nM matriptase): 60 min; time to complete cleavage (matriptase [1]; 25 nM matriptase): ≤ 30 min; relative cleavage efficiency group (high, medium, low) (matriptase [1]): high

Which “relative cleavage efficiency group” value (matriptase [1]) does the source give for MGRSFY [MtpB11] here?
Its value is “medium”.

For “ENLYFQG [TEV-control, TEV protease substrate, non-cleavable control for matriptase, reference compound]”, which “substrate cleavage by uPA” value [3] is on record?
The value was “No detectable cleavage”.

What about the “cleavage under any tested conditions” value (matriptase [5]; affibody-ABD fusion, 1, 10 or 50 nM matriptase, 10, 30 or 60 min, SDS-PAGE) of the same substance?
The value was “no cleavage”.

What about the “substrate cleavage by legumain” value (legumain) of the same substance?
Its value is “No detectable cleavage”.

And the “cleavage reporter signal of TEV-treated compared to untreated cells” value (TEV protease)?
Its value is “significantly lower signals”.

What about the “cleavage reporter signal of matriptase-treated compared to untreated cells” value (matriptase [1]) of the same substance?
The value was “No significant difference”.

With MKRKAR [MtpC10] as the substance, how does the “relative cleavage efficiency group” value (matriptase [1]) read?
Its value is “medium”.

Which “kcat/KM in the previous study” value (matriptase [6]) does the source give for “LSGRSDNH [Mtp-control, reference compound]” here?
Its value is 2200 M⁻¹ s⁻¹.

And the Vmax (matriptase [2])?
The Vmax was 0.02 ± 0.0057 µM/s.

What about the Km (matriptase [2]) of the same substance?
The Km was 191 µM.

And the kcat/KM (matriptase [2])?
Its kcat/KM is 1.28E+04 ± 2,969 M^−1 s^−1 and 1.3E+04 ± 2,969 M^−1 s^−1.

And the kcat (matriptase [2])?
Its kcat is 2.5 ± 0.57 s⁻¹.

And the “substrate cleavage by uPA” value [3]?
Its value is “No detectable cleavage”.

And the cleavage (matriptase [5]; 50 nM matriptase, 1 h)?
The cleavage was 96%.

What about the “substrate cleavage by legumain” value (legumain) of the same substance?
The value was “No detectable cleavage”.

And the “cleavage reporter signal of TEV-treated compared to untreated cells” value (TEV protease)?
Its value is “No significant difference”.

And the “cleavage reporter signal of matriptase-treated compared to untreated cells” value (matriptase [1])?
Its value is “significantly lower signals”.

Which results are given for VPRGRR [MtpC5]?
substrate cleavage by matriptase under identical conditions (matriptase [2]): cleavage was observed; Vmax (matriptase [2]): 0.06 ± 0.0005 µM/s; Km (matriptase [2]): 12.5 µM; kcat/KM (matriptase [2]): 5.13E+05 ± 3,910 M^−1 s^−1 and 5.1E+05 ± 3,910 M^−1 s^−1; kcat (matriptase [2]): 6.4 ± 0.05 s⁻¹; substrate cleavage by uPA [3]: No detectable substrate cleavage; time to complete cleavage (matriptase [4]): ≤ 30 min; cleavage (matriptase [5]; 1 nM matriptase, 10 min, two replicates): approximately 86%; substrate cleavage by legumain (legumain): No detectable substrate cleavage; time to complete cleavage (matriptase [1]; 10 nM matriptase): 60 min; time to complete cleavage (matriptase [1]; 25 nM matriptase): ≤ 30 min; relative cleavage efficiency group (high, medium, low) (matriptase [1]): high

Which “relative cleavage efficiency group” value (matriptase [1]) does the source give for LKRLMR [MtpA6] here?
The value was “low”.

Which “substrate cleavage by matriptase under identical conditions” value (matriptase [2]) does the source give for HYKGRK [MtpC9] here?
Its value is “cleavage was observed”.

And the Vmax (matriptase [2])?
Its Vmax is 0.06 ± 0.0021 µM/s.

What about the Km (matriptase [2]) of the same substance?
Its Km is 29.1 µM.

And the kcat/KM (matriptase [2])?
Its kcat/KM is 1.9E+05 ± 7,099 M^−1 s^−1.

What about the kcat (matriptase [2]) of the same substance?
Its kcat is 5.6 ± 0.21 s⁻¹.

And the “substrate cleavage by uPA” value [3]?
The value was “No detectable substrate cleavage”.

What about the “time to complete cleavage” value (matriptase [4]) of the same substance?
The value was at most 30 min.

What about the “substrate cleavage by legumain” value (legumain) of the same substance?
The value was “No detectable substrate cleavage”.

And the “time to complete cleavage” value (matriptase [1]; 10 nM matriptase)?
The value was 60 min.

And the “time to complete cleavage” value (matriptase [1]; 25 nM matriptase)?
The value was at most 30 min.

And the “relative cleavage efficiency group” value (matriptase [1])?
Its value is “high”.
